Data taken from patent publication US20200181671A1, “Method for Increasing Content of Mogroside V in Siraitia Grosvenorii Suspended Cells” (Guilin Layn Natural Ingredients Corp, priority 2017, published 2020).

Experiments:
[1] = tested on: Siraitia grosvenorii suspended cells; test: Content (yield) of mogroside V in Siraitia grosvenorii suspended cells under different treatment conditions, HPLC; format: cell-based
Method: (§1) Weighing 1.5 g Siraitia grosvenorii dry weight cells, adding 60% ethanol at a feed-to-liquid ratio of 15:1, ultrasonically extracting for 40 min, extracting for 2 h at 90° C. in a slightly boiling state, repeating the extraction for 3 times, and combining the extracts to concentrate them to 5 mL in a rotary evaporator. The concentrate was filtered through a 0.22 μm filtration membrane, and then qualitative and quantitative analysis was performed using a high-performance liquid chromatograph.
Chromatographic conditions: The chromatographic column was an inverted C18 column, 4.6 mm×250 mm; the mobile phase was water-acetonitrile at a ratio of 78:22, the flow rate was 1.0 mL/min; and the detection wavelength was 203 nm.

[2] = tested on: Siraitia grosvenorii suspended cells; test: Content of mogroside II in Siraitia grosvenorii suspended cells at the peak of mogroside V, HPLC; format: cell-based; conditions: n = 5, x ± s
Method: as §1, with “feed to liquid” for “feed-to-liquid”
Chromatographic conditions: The chromatographic column was a ZORBAX SBC C18 column, 4.6 mm×150 mm; the mobile phase was water-acetonitrile gradient elution (0-25 min, 13.5% to 35% acetonitrile), the flow rate was 0.8 mL/min; and the detection wavelength was 203 nm.

[3] = tested on: Siraitia grosvenorii suspended cells; test: Content (yield) of mogroside V in Siraitia grosvenorii suspended cells under different treatment conditions, HPLC; format: cell-based; conditions: suspended cells in the logarithmic growing period treated with methyl jasmonate alone
[4] = tested on: suspension culture cells of Maackia amurensis Rupr. et Maxim; conditions: 200 μmol/L, 9 days; cited from earlier work
[5] = tested on: Taxus chinensis suspended cells; conditions: 100 μmol/L; cited from earlier work
[6] = tested on: pueraria suspended cells; conditions: 1.0 mg/L; cited from earlier work
[7] = tested on: Siraitia Grosvenorii Cell Culture System; conditions: 500 mg/L; cited from earlier work

Compound: CC/C=C\CC1C(=O)CCC1CC(=O)OC (stereo not shown) [Comparative Example 4]
- yield of mogroside V per unit time ([1]; 1 d of culture, n = 5, x ± s): 31.1 ± 0.8 g/L
- yield of mogroside V per unit time ([1]; 3 d of culture, n = 5, x ± s): 32.6 ± 0.9 g/L
- yield of mogroside V per unit time ([1]; 5 d of culture, n = 5, x ± s): 33.2 ± 1.1 g/L
- yield of mogroside V per unit time ([1]; 7 d of culture, n = 5, x ± s): 33.5 ± 1.5 g/L
- yield of mogroside V per unit time ([1]; 9 d of culture, n = 5, x ± s): 39.5 ± 2.0 g/L
- yield of mogroside V per unit time ([1]; 11 d of culture, n = 5, x ± s): 46.5 ± 1.8 g/L
- yield of mogroside V per unit time ([1]; 13 d of culture, n = 5, x ± s): 51.6 ± 1.8 g/L
- yield of mogroside V per unit time ([1]; 15 d of culture, n = 5, x ± s): 53.6 ± 1.5 g/L
- yield of mogroside V per unit time ([1]; 17 d of culture, n = 5, x ± s): 54.5 ± 1.6 g/L
- yield of mogroside V per unit time ([1]; 19 d of culture, n = 5, x ± s): 55.7 ± 1.8 g/L
- yield of mogroside V per unit time ([1]; 21 d of culture, n = 5, x ± s): 56.8 ± 2.0 g/L
- yield of mogroside V per unit time ([1]; 23 d of culture, n = 5, x ± s): 58.2 ± 2.2 g/L
- yield of mogroside V per unit time ([1]; 25 d of culture, n = 5, x ± s): 55.2 ± 2.4 g/L
- yield of mogroside V per unit time ([1]; 27 d of culture, n = 5, x ± s): 51.4 ± 2.5 g/L
- yield of mogroside V per unit time ([1]; 29 d of culture, n = 5, x ± s): 46.5 ± 2.4 g/L
- yield of mogroside V per unit time ([1]; 31 d of culture, n = 5, x ± s): 41.2 ± 2.5 g/L
- Peak yield (maximum yield) of mogroside V ([1]; maximum over days 1 to 31 of culture, n = 5, x ± s): 58.2 ± 2.2 g/L
- Content of mogroside II [2]: 32.8 ± 2.6 g/L

Compound: CC/C=C\CC1C(=O)CCC1CC(=O)OC (stereo not shown) [methyl jasmonate, Methyl jasmonate]
- total content of mogroside V ([1]; inducer added alone, compared with the normal culture group, result in words): decreased compared with the normal culture group
- amount of synthesis of mogroside V per unit time ([1]; suspended cells in the logarithmic growing period treated with methyl jasmonate alone): increased
- cell browning [3]: cell browning phenomenon was obvious
- content of isoflavone, of that of the control of the same period [4]: 417.18%
- increase of the content of paclitaxel [5]: 10 times
- content of puerarin in the cell culture [6]: increased

Compound: N[C@@H](Cc1ccccc1)C(=O)O [phenylalanine]
- increase of the total amount of mogroside V compared with the control group [7]: 260.38%
